Measurements reported in paper PMC6073568, “Efficient Lead Finding, Activity Enhancement and Preliminary Selectivity Control of Nuclear Receptor Ligands Bearing a Phenanthridinone Skeleton” (International Journal of Molecular Sciences, 2018).

Experiments:
[1] = target: T1, LXRα (Homo sapiens, UniProt Q13133); experiment: LXRα reporter gene assay in HEK293; format: cell-based; details: read-out: LXRα antagonistic activity (IC50)
T1 construct: CMX-GAL4N-hLXRα-LBD; expressed in transfected cells; host or cells: HEK293
T1 sequence (Q13133 209-447 limits assumed): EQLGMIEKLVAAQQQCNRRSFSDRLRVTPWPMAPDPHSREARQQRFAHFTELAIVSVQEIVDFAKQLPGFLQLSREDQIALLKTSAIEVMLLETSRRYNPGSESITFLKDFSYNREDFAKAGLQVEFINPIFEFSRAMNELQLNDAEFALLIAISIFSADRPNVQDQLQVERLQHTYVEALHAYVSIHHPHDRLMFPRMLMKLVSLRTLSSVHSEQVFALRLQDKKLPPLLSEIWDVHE

[2] = target: T2, GR (Homo sapiens, UniProt P04150); experiment: GR reporter gene assay in HEK293; format: cell-based; details: reporter gene assay, HEK293; agonist dexamethasone 1 nM; read-out: GR antagonistic activity (IC50)
T2 construct: expressed in transfected cells; host or cells: HEK293
T2 sequence (P04150 1-777): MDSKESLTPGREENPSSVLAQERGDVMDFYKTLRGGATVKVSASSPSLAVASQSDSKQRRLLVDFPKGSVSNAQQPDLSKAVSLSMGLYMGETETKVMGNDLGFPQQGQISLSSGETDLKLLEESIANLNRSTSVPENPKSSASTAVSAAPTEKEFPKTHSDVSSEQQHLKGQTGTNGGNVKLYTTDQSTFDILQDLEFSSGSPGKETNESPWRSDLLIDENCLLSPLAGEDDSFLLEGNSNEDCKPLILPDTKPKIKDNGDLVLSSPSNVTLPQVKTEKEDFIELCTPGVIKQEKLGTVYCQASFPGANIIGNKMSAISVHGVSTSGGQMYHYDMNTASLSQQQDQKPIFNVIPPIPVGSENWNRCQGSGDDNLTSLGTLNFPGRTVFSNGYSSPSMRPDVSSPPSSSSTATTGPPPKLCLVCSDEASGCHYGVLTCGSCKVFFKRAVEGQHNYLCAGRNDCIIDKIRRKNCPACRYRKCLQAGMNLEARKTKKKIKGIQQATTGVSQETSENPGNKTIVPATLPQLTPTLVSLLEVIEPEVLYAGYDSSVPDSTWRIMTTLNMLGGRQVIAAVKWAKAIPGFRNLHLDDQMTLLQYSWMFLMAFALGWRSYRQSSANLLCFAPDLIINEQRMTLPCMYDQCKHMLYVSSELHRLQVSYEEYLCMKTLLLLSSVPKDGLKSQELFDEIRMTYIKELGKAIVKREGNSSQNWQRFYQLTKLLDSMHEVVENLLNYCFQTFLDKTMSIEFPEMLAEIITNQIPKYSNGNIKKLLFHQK

[3] = target: T3, AR (Homo sapiens, UniProt P10275); experiment: AR reporter gene assay in HEK293; format: cell-based; details: reporter gene assay, HEK293; agonist dihydrotestosterone 0.3 nM; read-out: AR antagonistic activity (IC50), AR reporter gene
T3 sequence (P10275 1-920): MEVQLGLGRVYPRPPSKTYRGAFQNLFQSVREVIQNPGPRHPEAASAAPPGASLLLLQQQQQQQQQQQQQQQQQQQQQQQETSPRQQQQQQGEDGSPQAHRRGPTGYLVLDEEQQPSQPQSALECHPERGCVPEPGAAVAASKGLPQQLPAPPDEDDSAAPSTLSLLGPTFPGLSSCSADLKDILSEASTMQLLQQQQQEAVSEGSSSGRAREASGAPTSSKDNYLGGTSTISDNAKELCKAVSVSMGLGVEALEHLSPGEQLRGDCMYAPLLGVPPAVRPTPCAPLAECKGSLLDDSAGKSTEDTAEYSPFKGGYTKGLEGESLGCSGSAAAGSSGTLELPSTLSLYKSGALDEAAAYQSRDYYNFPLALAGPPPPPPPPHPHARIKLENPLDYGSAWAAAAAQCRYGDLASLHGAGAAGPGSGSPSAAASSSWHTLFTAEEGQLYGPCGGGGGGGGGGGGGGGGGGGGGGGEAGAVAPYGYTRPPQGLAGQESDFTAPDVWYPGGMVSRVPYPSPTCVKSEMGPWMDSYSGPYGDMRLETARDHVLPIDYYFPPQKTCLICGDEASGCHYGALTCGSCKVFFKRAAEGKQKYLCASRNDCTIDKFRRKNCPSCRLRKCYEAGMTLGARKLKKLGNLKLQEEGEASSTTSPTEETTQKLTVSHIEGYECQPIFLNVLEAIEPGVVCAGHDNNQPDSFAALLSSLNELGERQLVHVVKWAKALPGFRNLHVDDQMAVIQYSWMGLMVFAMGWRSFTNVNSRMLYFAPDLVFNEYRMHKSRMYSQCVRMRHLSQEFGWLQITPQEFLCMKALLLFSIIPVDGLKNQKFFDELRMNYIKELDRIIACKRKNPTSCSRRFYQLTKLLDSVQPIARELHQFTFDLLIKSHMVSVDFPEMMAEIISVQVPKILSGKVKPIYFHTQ

[4] = target: T4, LXRβ (Homo sapiens, UniProt P55055); experiment: LXRβ reporter gene assay in HEK293; format: cell-based; details: read-out: LXRβ antagonistic activity (IC50)
T4 construct: CMX-GAL4N-hLXRβ-LBD; expressed in transfected cells; host or cells: HEK293
T4 sequence (P55055 222-460 limits assumed): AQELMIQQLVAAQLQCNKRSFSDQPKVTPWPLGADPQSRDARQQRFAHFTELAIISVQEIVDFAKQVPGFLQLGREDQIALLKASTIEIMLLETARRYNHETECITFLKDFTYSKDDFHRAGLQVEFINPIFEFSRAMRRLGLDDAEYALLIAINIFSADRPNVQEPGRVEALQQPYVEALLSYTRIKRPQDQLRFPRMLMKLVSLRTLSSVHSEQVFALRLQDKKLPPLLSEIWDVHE

[5] = target: T5, RORβ (Homo sapiens, UniProt Q92753); details: reporter gene assay, HEK293; read-out: RORβ inverse agonistic activity (IC50); cited from earlier work
T5 construct: expressed in transfected cells; host or cells: HEK293
T5 sequence (Q92753 1-459 isoform Q92753-1): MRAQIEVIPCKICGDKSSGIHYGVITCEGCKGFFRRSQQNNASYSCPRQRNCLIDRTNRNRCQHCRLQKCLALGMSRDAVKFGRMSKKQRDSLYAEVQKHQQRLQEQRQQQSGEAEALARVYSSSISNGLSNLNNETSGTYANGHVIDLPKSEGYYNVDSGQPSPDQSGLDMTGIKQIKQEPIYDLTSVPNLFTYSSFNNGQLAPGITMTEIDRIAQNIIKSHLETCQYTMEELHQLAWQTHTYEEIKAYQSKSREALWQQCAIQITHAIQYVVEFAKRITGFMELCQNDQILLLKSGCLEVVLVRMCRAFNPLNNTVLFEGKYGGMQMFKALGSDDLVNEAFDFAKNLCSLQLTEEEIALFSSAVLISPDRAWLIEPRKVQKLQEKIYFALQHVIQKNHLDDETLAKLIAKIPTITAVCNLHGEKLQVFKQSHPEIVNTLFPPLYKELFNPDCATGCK

| SMILES | IC50 [1] | IC50 [2] | IC50 [3] | IC50 [4] | IC50 [5] |
| --- | --- | --- | --- | --- | --- |
| CCCCn1c(=O)c2cc(OC)ccc2c2cc(C(O)(C(F)(F)F)C(F)(F)F)c(OC)cc21 [Compound 27] | 17 µM | 1.7 µM | 0.58 µM | 18 µM | 13 µM |
| CCCCn1c(=O)c2cc(OC)ccc2c2cc(C(O)(C(F)(F)F)C(F)(F)F)cc(OC)c21 [Compound 28] | > 10 µM | 5.2 µM | 1.7 µM | > 10 µM | 11 µM |
| CCCCn1c(=O)c2c(OC)c(OC)ccc2c2cc(C(O)(C(F)(F)F)C(F)(F)F)ccc21 [Compound 29] | 3.2 µM | 7.9 µM | 4.6 µM | 3.2 µM | 7.7 µM |
| CCCCn1c(=O)c2c(OC)cc(OC)cc2c2cc(C(O)(C(F)(F)F)C(F)(F)F)ccc21 [Compound 30] | > 20 µM | > 20 µM | > 20 µM | > 20 µM | > 20 µM |
| CCCCn1c(=O)c2cc(OC)c(OC)cc2c2cc(C(O)(C(F)(F)F)C(F)(F)F)ccc21 [Compound 31] | 8.8 µM | 17 µM | 1.6 µM | 8.9 µM | 16 µM |
| O=c1[nH]c2c(F)cc(C(O)(C(F)(F)F)C(F)(F)F)cc2c2ccccc12 [Compound 32] | 3.1 µM | 6.9 µM | 0.39 µM | 4.6 µM | 14 µM |
| O=c1[nH]c2ccc(C(O)(C(F)(F)F)C(F)(F)F)cc2c2cccc(F)c12 [Compound 33] | 3.1 µM | 9.8 µM | 0.46 µM | 3.1 µM | 9.8 µM |
| O=c1[nH]c2ccc(C(O)(C(F)(F)F)C(F)(F)F)cc2c2ccc(F)cc12 [Compound 34] | 7.9 µM | > 20 µM | 0.68 µM | 6 µM | 11 µM |
| O=c1[nH]c2ccc(C(O)(C(F)(F)F)C(F)(F)F)cc2c2cc(F)ccc12 [Compound 35] | 6.4 µM | 7 µM | 0.92 µM | 5.4 µM | 8.3 µM |
| COc1cc(C(O)(C(F)(F)F)C(F)(F)F)cc2c1[nH]c(=O)c1ccccc12 [Compound 39] | > 20 µM | > 20 µM | > 20 µM | > 20 µM | > 20 µM |
| CCc1cc(C(O)(C(F)(F)F)C(F)(F)F)cc2c1[nH]c(=O)c1ccccc12 [Compound 41] | > 20 µM | > 20 µM | 14 µM | > 20 µM | > 20 µM |
| CCCc1cc(C(O)(C(F)(F)F)C(F)(F)F)cc2c1[nH]c(=O)c1ccccc12 [Compound 42] | > 20 µM | 16 µM | 5.4 µM | 20 µM | 11 µM |
